Here are results for twelve compounds from paper PMC11032351, “Epigenetic modulation through BET bromodomain inhibitors as a novel therapeutic strategy for progranulin-deficient frontotemporal dementia” (Scientific Reports, 2024).

Structures are written as SMILES.

The experiment deals with T1, Endogenous BRD4 (NPC) (Homo sapiens, UniProt O60885).
T1 construct: target engagement toward endogenous BRD4 derived from cellular lysates of cell types of interest; endogenous in cells; host or cells: 8330-8 human iPSC-derived neural progenitor cells
In words: CoraFluor TR-FRET ligand displacement, endogenous BRD4 in NPC lysate. The class given is binding. The conditions noted are these: with 95% confidence interval, read-out: Endogenous BRD4 (NPC), KD,app. As to the method:
A cell pellet from one 15 cm dish (~ 25 M cells) of HEK293T cells, or from one confluent T-75 flask 8330-8 NPC cells (~ 9 M cells), was allowed to thaw on ice and cells were suspended in 400 μL lysis buffer (25 mM HEPES, 150 mM NaCl, 0.2% (v/v) Triton X-100, 0.02% (v/v) TWEEN-20, pH 7.5 supplemented with 2 mM DTT and one Roche cOmplete, Mini, EDTA-free protease inhibitor cocktail tablet (Sigma 11,836,170,001) per 7 mL. Cells were homogenized via passage through a 27.5-gauge needle 5 times, and the resulting mixture was incubated with slow, end-over-end mixing at 4 °C for 15 min. The lysate was clarified via centrifugation at 16,100 × g for 10 min at 4 °C then 800 μL (1:3 dilution) dilution buffer (25 mM HEPES, 150 mM NaCl, 0.005% (v/v) TWEEN-20, pH 7.5) was added and the lysate was re-clarified at 16,100 × g for 10 min at 4 °C. Total protein was quantified via detergent-compatible Bradford assay (ThermoFisher 23,246). The lysate was used fresh or flash-frozen in liquid nitrogen and stored at − 80 °C in single-use aliquots.
Unless otherwise noted, experiments were performed in white, 384-well microtiter plates (Corning 3572 or PerkinElmer ProxiPlate-384 Plus) in 30 μL or 10 μL assay volume, respectively. TR-FRET measurements were acquired on a Tecan SPARK plate reader with SPARKCONTROL software version V2.1 (Tecan Group Ltd.), with the following settings: 340/50 nm excitation, 490/10 nm (Tb), 520/10 nm (FITC) emission, 100 μs delay, and 400 μs integration. The 490/10 and 520/10 nm emission channels were acquired with a 50% mirror and a dichroic 510 mirror, respectively, using independently optimized detector gain settings unless specified otherwise. The TR-FRET ratio was taken as the 520/490 nm intensity ratio on a per-well basis.
For the profiling of endogenous BRD4, cell lysates as prepared above were diluted to 0.8 mg/mL total protein in 1:3 lysis buffer:dilution buffer with 0.5 nM rabbit anti-BRD4 antibody (Cell Signaling Technology; E2A7X) and 1 nM CoraFluor-1-labeled anti-rabbit Nano-Secondary (ChromoTek CTK0101). JQ1-FITC was added in serial dilution (cmax = 200 nM) using an HP D300 digital dispenser and allowed to equilibrate for 2 h at room temperature before TR-FRET measurements were taken. Nonspecific signal was determined with 50 μM JQ1-Acid, and data were fitted to a One Site–Specific Binding model in Prism 9. The KD,app determined from the one-site model was then adjusted for a two-site model using Eq. 1.
The following assay parameters have been used: (i) 4 nM GST-BRD4(BD1), 4 nM CoraFluor-labeled GST VHH, 20 nM JQ1-FITC in assay buffer, (ii) 4 nM GST-BRD4(BD2), 4 nM CoraFluor-labeled GST VHH, 20 nM JQ1-FITC in assay buffer, (iii) HEK293T or NPC cell lysate at 0.8 mg/mL total protein, 1 nM rabbit anti-BRD4 antibody, 2 nM CoraFluor-labeled anti-rabbit Nano-Secondary, 20 nM JQ1-FITC. For all experiments, test compounds were added in serial dilution (cmax = 10 μM) using an HP D300 digital dispenser and allowed to equilibrate for 2 h at room temperature before TR-FRET measurements were taken. The assay floor (background) was defined with the 10 μM mivebresib dose, and the assay ceiling (top) was defined via a no-inhibitor control. Data were fitted to a four-parameter dose–response model in Prism 9.
For TR-FRET ligand displacement assays with recombinant bromodomains, we have determined the KD of the respective fluorescent tracer (JQ1-FITC) under each assay condition. For endogenous BRD4 in whole cell extract, we have determined the KD,app of JQ1-FITC under each assay condition. Inhibitor KD and KD,app values have been calculated using Cheng-Prusoff principles, outlined in Eq. 2 below:2 KDorKD,app=IC50/1+[S]/KX where IC50 is the measured IC50 value, [S] is the concentration of fluorescent tracer, and KX is the KD or KD,app of the fluorescent tracer for a given condition.
On the technique in general: Time-resolved FRET reads energy transfer from a long-lived donor to a nearby acceptor.
`Cn1ccc2c(-c3cccnc3Nc3ccc(F)cc3)c[nH]c2c1=O` [Compound 85B, 3-(2-((4-fluorophenyl)amino)pyridin-3-yl)-6-methyl-1,6-dihydro-7H-pyrrolo[2,3-c]pyridin-7-one]: the Kd was 3810 nM. Next, `Cn1ccc2c(-c3cccnc3Oc3ccc(F)cc3)c[nH]c2c1=O` [Compound 18B, 3-[2-(4-fluorophenoxy)pyridin-3-yl]-6-methyl-1,6-dihydro-7H-pyrrolo[2,3-c]pyridin-7-one]: 131 nM; `Cn1cc(-c2cc(F)cnc2Oc2ccc(F)cc2)c2cc[nH]c2c1=O` [Compound 86A, 4-(5-fluoro-2-(4-fluorophenoxy)pyridin-3-yl)-6-methyl-1,6-dihydro-7H-pyrrolo[2,3-c]pyridin-7-one]: 559 nM. Next, `Cn1cc(-c2cccnc2Oc2cc(F)cc(F)c2)c2cc[nH]c2c1=O` [Compound 82A, 4-(2-(3,5-difluorophenoxy)pyridin-3-yl)-6-methyl-1,6-dihydro-7H-pyrrolo[2,3-c]pyridin-7-one]: 45 nM. Next, `Cn1ccc2c(-c3cccnc3Sc3ccc(F)cc3)c[nH]c2c1=O` [Compound 84B, 3-(2-((4-fluorophenyl)thio)pyridin-3-yl)-6-methyl-1,6-dihydro-7H-pyrrolo[2,3-c]pyridin-7-one]: 195 nM. As for `Cn1ccc2c(-c3cc(F)cnc3Oc3ccc(F)cc3)c[nH]c2c1=O` [Compound 86B, 3-(5-fluoro-2-(4-fluorophenoxy)pyridin-3-yl)-6-methyl-1,6-dihydro-7H-pyrrolo[2,3-c]pyridin-7-one], the Kd was 5900 nM.

As to `Cn1cc(-c2cccnc2Nc2ccc(F)cc2)c2cc[nH]c2c1=O` [Compound 85A, 4-(2-((4-fluorophenyl)amino)pyridin-3-yl)-6-methyl-1,6-dihydro-7H-pyrrolo[2,3-c]pyridin-7-one], the Kd came to 100 nM. On to `Cn1cc(-c2cccnc2Sc2ccc(F)cc2)c2cc[nH]c2c1=O` [Compound 84A, 4-(2-((4-fluorophenyl)thio)pyridin-3-yl)-6-methyl-1,6-dihydro-7H-pyrrolo[2,3-c]pyridin-7-one], for which the Kd came out at 378 nM. For the compound `Cn1cc(-c2cccnc2Oc2ccc(F)cc2)c2cc[nH]c2c1=O` [Compound 18A, 4-(2-(4-fluorophenoxy)pyridin-3-yl)-6-methyl-1H-pyrrolo[2,3-c]pyridin-7(6H)-one], the Kd was 46 nM. Next, `Cn1cc(-c2cccnc2Oc2ccc(F)c(F)c2)c2cc[nH]c2c1=O` [Compound 81A, 4-(2-(3,4-difluorophenoxy)pyridin-3-yl)-6-methyl-1,6-dihydro-7H-pyrrolo[2,3-c]pyridin-7-one]: 32 nM; `Cn1ccc2c(-c3cccnc3Oc3cc(F)cc(F)c3)c[nH]c2c1=O` [Compound 82B, 3-(2-(3,5-difluorophenoxy)pyridin-3-yl)-6-methyl-1,6-dihydro-7H-pyrrolo[2,3-c]pyridin-7-one]: 430 nM. Next, `Cn1ccc2c(-c3cccnc3Oc3ccc(F)c(F)c3)c[nH]c2c1=O` [Compound 81B, 3-(2-(3,4-difluorophenoxy)pyridin-3-yl)-6-methyl-1,6-dihydro-7H-pyrrolo[2,3-c]pyridin-7-one]: 532 nM.
